# Assay results from the supplement of paper PMC11208160.
# Test: recombinant UMI read abundance after kanamycin selection (control-corrected) (log10(CPM+1)); higher = more efficient recombination; extreme values may be limits of the assay; sequences stand for … in AGTGCAGAGAAAATCGGCCAGTTTTCTCTGCCTGCAGTCCGCATGCCGTGGGACCCCTTGGGTTCTAACCTGTTGCCTAGATTTATGCAGCGGACTGCCTTTCTCCCAAAGTGATAAACCGG…AGGTTGGTTTCACT; site = the 11-nt donor
# Procedure, shortened: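 Counts of recombinant UMIs were reported as log10(CPM+1). Before that, they were converted to CPM, averaged over replicates and scaled using control-derived factors. They came from PCR across the donor–target junction after Escherichia coli carrying the pair library and target plasmid was plated on IPTG (0.07 mM) plus kanamycin, or unselected, in two replicates each.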
# 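Further: IS621 bridge recombinase in Escherichia coli cells against a fixed T5 target plasmid.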
row,Sequence,recombinant UMI read abundance (log10)
1,TCATACTCATGGACCGGTTTTCCCGGTAATCCGTATTTGCA (site TCATACTCTTC),0.0158
2,TCATACTCATGGACCGGTTTTCCCGGTAATCCGTATTTGCA (site TCATACTCTTG),2.69
3,TCATACTCATGGACCGGTTTTCCCGGTAATCCGTATTTGCA (site TCATACTCTTT),0.0879
4,TCATACTCATGGACCGGTTTTCCCGGTAATCCGTATTTGCA (site TCATAGTCTTG),1.54
5,TCATACTCATGGACCGGTTTTCCCGGTAATCCGTATTTGCA (site TCATATTCTTG),0
6,TCATACTCATGGACCGGTTTTCCCGGTAATCCGTATTTGCA (site TCATCCTCTTG),0.111
7,TCATACTCATGGACCGGTTTTCCCGGTAATCCGTATTTGCA (site TCATGCTCTTG),0
8,TCATACTCATGGACCGGTTTTCCCGGTAATCCGTATTTGCA (site TCATTCTCTTG),0
9,TCATACTCATGGACCGGTTTTCCCGGTAATCCGTATTTGCA (site TCCTACTCTTG),1.79
10,TCATACTCATGGACCGGTTTTCCCGGTAATCCGTATTTGCA (site TCGTACTCTTG),2.35
11,TCATACTCATGGACCGGTTTTCCCGGTAATCCGTATTTGCA (site TCTTACTCTTG),2.13
12,TCATACTCATGGACCGGTTTTCCCGGTAATCCGTATTTGCA (site TGATACTCTTG),1.78
13,TCATACTCATGGACCGGTTTTCCCGGTAATCCGTATTTGCA (site TTATACTCTTG),1.2
14,TCATACTCATGGACCGGTTTTCCCGGTAATCCGTATTTGCC (site TCATACTCTAG),1.07
15,TCATACTCATGGACCGGTTTTCCCGGTAATCCGTATTTGCC (site TCATACTCTCG),0
16,TCATACTCATGGACCGGTTTTCCCGGTAATCCGTATTTGCC (site TCATACTCTGG),2.23
17,TCATACTCATGGACCGGTTTTCCCGGTAATCCGTATTTGCC (site TCATACTCTTG),0
18,TCATACTCATGGACCGGTTTTCCCGGTAATCCGTATTTGCT (site TCATACTCTAG),2.47
19,TCATACTCATGGACCGGTTTTCCCGGTAATCCGTATTTGCT (site TCATACTCTCG),0
20,TCATACTCATGGACCGGTTTTCCCGGTAATCCGTATTTGCT (site TCATACTCTGG),0
21,TCATACTCATGGACCGGTTTTCCCGGTAATCCGTATTTGCT (site TCATACTCTTG),0
22,TCATATACATGGACCGGTTTTCCCGGTAATCCGTATTTGCA (site TCATATACTTG),0.743
23,TCATATACATGGACCGGTTTTCCCGGTAATCCGTATTTGGA (site TCATATACTTC),0.727
24,TCATCGGCATGGACCGGTTTTCCCGGTAATCCGTATTTGAG (site TCATCGGCTCT),0.699
25,TCATCTACATGGACCGGTTTTCCCGGTAATCCGTATTTGTG (site ACATCTACTCA),0.0432

row,Sequence,recombinant UMI read abundance (log10)
1,TCATCTACATGGACCGGTTTTCCCGGTAATCCGTATTTGTG (site CCATCTACTCA),0.00835
2,TCATCTACATGGACCGGTTTTCCCGGTAATCCGTATTTGTG (site GCATCTACTCA),0.0109
3,TCATCTACATGGACCGGTTTTCCCGGTAATCCGTATTTGTG (site TCATCTACTCA),0.00873
4,TCATGGTCATGGACCGGTTTTCCCGGTAATCCGTATTTGTT (site TCATGGTCTAA),0.48
5,TCCAAAGCATGGACCGGTTTTCCCGGTAATCCGTATTTGAC (site GTACCGCCTAG),0
6,TCCAACTCATGGACCGGTTTTCCCGGTAATCCGTATTTGCC (site TCCAAATCTGG),0
7,TCCAACTCATGGACCGGTTTTCCCGGTAATCCGTATTTGCC (site TCCAACTCTGG),0
8,TCCAACTCATGGACCGGTTTTCCCGGTAATCCGTATTTGCC (site TCCAAGTCTGG),0
9,TCCAACTCATGGACCGGTTTTCCCGGTAATCCGTATTTGCC (site TCCAATTCTGG),0
10,TCCAATTCATGGACCGGTTTTCCCGGTAATCCGTATTTGCC (site ACCAATTCTGG),0
11,TCCAATTCATGGACCGGTTTTCCCGGTAATCCGTATTTGCC (site CCCAATTCTGG),0
12,TCCAATTCATGGACCGGTTTTCCCGGTAATCCGTATTTGCC (site GCCAATTCTGG),0
13,TCCAATTCATGGACCGGTTTTCCCGGTAATCCGTATTTGCC (site TACAATTCTGG),0
14,TCCAATTCATGGACCGGTTTTCCCGGTAATCCGTATTTGCC (site TCAAATTCTGG),0
15,TCCAATTCATGGACCGGTTTTCCCGGTAATCCGTATTTGCC (site TCCAAATCTGG),0
16,TCCAATTCATGGACCGGTTTTCCCGGTAATCCGTATTTGCC (site TCCAACTCTGG),0
17,TCCAATTCATGGACCGGTTTTCCCGGTAATCCGTATTTGCC (site TCCAAGTCTGG),0
18,TCCAATTCATGGACCGGTTTTCCCGGTAATCCGTATTTGCC (site TCCAATACTGG),0
19,TCCAATTCATGGACCGGTTTTCCCGGTAATCCGTATTTGCC (site TCCAATCCTGG),0
20,TCCAATTCATGGACCGGTTTTCCCGGTAATCCGTATTTGCC (site TCCAATGCTGG),0
21,TCCAATTCATGGACCGGTTTTCCCGGTAATCCGTATTTGCC (site TCCAATTCTAG),0
22,TCCAATTCATGGACCGGTTTTCCCGGTAATCCGTATTTGCC (site TCCAATTCTCG),0
23,TCCAATTCATGGACCGGTTTTCCCGGTAATCCGTATTTGCC (site TCCAATTCTGC),0
24,TCCAATTCATGGACCGGTTTTCCCGGTAATCCGTATTTGCC (site TCCAATTCTGG),0
25,TCCAATTCATGGACCGGTTTTCCCGGTAATCCGTATTTGCC (site TCCAATTCTGT),0

row,Sequence,recombinant UMI read abundance (log10)
1,TCCAATTCATGGACCGGTTTTCCCGGTAATCCGTATTTGCC (site TCCAATTCTTG),0
2,TCCAATTCATGGACCGGTTTTCCCGGTAATCCGTATTTGCC (site TCCACTTCTGG),0
3,TCCAATTCATGGACCGGTTTTCCCGGTAATCCGTATTTGCC (site TCCAGTTCTGG),0
4,TCCAATTCATGGACCGGTTTTCCCGGTAATCCGTATTTGCC (site TCCATTTCTGG),0
5,TCCAATTCATGGACCGGTTTTCCCGGTAATCCGTATTTGCC (site TCCCATTCTGG),0
6,TCCAATTCATGGACCGGTTTTCCCGGTAATCCGTATTTGCC (site TCCGATTCTGG),0
7,TCCAATTCATGGACCGGTTTTCCCGGTAATCCGTATTTGCC (site TCCTATTCTGG),0
8,TCCAATTCATGGACCGGTTTTCCCGGTAATCCGTATTTGCC (site TCGAATTCTGG),0
9,TCCAATTCATGGACCGGTTTTCCCGGTAATCCGTATTTGCC (site TCTAATTCTGG),0
10,TCCAATTCATGGACCGGTTTTCCCGGTAATCCGTATTTGCC (site TGCAATTCTGG),0
11,TCCAATTCATGGACCGGTTTTCCCGGTAATCCGTATTTGCC (site TTCAATTCTGG),0
12,TCCAATTCATGGACCGGTTTTCCCGGTAATCCGTATTTGTC (site TCCAATTCTGA),0
13,TCCAATTCATGGACCGGTTTTCCCGGTAATCCGTATTTGTC (site TCCAATTCTGC),0
14,TCCAATTCATGGACCGGTTTTCCCGGTAATCCGTATTTGTC (site TCCAATTCTGG),0
15,TCCAATTCATGGACCGGTTTTCCCGGTAATCCGTATTTGTC (site TCCAATTCTGT),0
16,TCCACCGCATGGACCGGTTTTCCCGGTAATCCGTATTTGCC (site TCCACCGCTAG),0.0325
17,TCCACCGCATGGACCGGTTTTCCCGGTAATCCGTATTTGCC (site TCCACCGCTCG),0.0335
18,TCCACCGCATGGACCGGTTTTCCCGGTAATCCGTATTTGCC (site TCCACCGCTGG),0
19,TCCACCGCATGGACCGGTTTTCCCGGTAATCCGTATTTGCC (site TCCACCGCTTG),0.00442
20,TCCAGTACATGGACCGGTTTTCCCGGTAATCCGTATTTGAG (site TCCAGTACTCT),0.00906
21,TCCATATCATGGACCGGTTTTCCCGGTAATCCGTATTTGTC (site ACCATATCTGA),0
22,TCCATATCATGGACCGGTTTTCCCGGTAATCCGTATTTGTC (site CCCATATCTGA),0
23,TCCATATCATGGACCGGTTTTCCCGGTAATCCGTATTTGTC (site GCCATATCTGA),0
24,TCCCACACATGGACCGGTTTTCCCGGTAATCCGTATTTGTA (site ACCCACACTTA),0.0202
25,TCCCACACATGGACCGGTTTTCCCGGTAATCCGTATTTGTA (site CCCCACACTTA),0.0988
